In patent publication US9943519B2, “Pharmaceutical compounds” (F.HOFFMANN-LA ROCHE AG, priority 2006, dated 2018):

Experiments:
[1] = molecular target: human PI3K isoform gamma (p110 gamma) (Homo sapiens, UniProt P48736); assay: p110 isoform selectivity scintillation proximity assay (gamma); format: biochemical; conditions: ratio of IC50 values, SPA, purified human PI3K isoforms
Description: (§1) Binding of compounds of the invention from above Tables 1a and 1b to purified preparations of p110 isoforms alpha, beta, delta, and gamma was measured by a Scintillation Proximity Assay (SPA) to determine binding activity (IC50 μMol) and selectivity of binding of beta, delta, and gamma isoforms relative to alpha (Example 8). These values are expressed in Table 2.
(§2) The ability of representative compounds from Tables 1a and 1b to inhibit the lipid kinase activity of purified preparations of human PI3K isoforms alpha, beta, delta, and gamma was determined by a radiometric scintillation proximity assay (SPA, GE Healthcare, Amersham Biosciences). Concentration dependent inhibition at 50% (IC50 μMol) was determined for all four isoforms […] and fold potency over beta, delta, and gamma relative to alpha was calculated for a selection of compounds in Table 2. Each compound has a p110 alpha IC50<1 μMol.

[2] = molecular target: human PI3K isoform beta (p110 beta) (Homo sapiens, UniProt P42338); assay: p110 isoform selectivity scintillation proximity assay (beta); format: biochemical; conditions: ratio of IC50 values, SPA, purified human PI3K isoforms
Sequence of human PI3K isoform beta (p110 beta) (P42338 whole entry, canonical isoform): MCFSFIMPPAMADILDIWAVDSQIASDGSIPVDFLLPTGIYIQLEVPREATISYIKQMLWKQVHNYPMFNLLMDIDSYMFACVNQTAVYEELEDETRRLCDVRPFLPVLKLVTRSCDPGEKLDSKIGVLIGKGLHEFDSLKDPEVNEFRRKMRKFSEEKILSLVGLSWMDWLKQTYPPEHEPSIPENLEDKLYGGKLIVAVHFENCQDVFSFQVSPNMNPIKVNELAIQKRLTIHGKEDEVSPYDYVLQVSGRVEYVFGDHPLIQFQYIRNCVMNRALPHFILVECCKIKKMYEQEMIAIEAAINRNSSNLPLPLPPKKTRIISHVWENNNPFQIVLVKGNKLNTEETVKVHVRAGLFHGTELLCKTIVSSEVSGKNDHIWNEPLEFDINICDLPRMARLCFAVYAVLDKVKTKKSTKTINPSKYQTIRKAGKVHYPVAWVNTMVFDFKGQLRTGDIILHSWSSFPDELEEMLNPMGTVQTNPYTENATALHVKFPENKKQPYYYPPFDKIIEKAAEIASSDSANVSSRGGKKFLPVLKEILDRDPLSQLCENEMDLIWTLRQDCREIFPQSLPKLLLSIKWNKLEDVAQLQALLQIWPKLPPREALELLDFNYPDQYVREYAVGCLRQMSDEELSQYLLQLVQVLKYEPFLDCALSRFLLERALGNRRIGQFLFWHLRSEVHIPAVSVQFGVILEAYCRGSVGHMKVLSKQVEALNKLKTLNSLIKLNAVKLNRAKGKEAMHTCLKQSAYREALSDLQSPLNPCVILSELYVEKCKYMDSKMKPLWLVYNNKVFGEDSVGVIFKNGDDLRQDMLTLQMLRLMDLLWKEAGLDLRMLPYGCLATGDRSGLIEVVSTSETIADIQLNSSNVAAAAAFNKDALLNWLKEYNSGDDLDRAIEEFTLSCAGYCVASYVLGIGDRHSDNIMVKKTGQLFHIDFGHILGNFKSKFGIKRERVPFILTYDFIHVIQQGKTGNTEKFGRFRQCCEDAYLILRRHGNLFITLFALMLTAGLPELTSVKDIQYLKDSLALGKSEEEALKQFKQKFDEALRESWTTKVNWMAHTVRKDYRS
Sequence of human PI3K isoform beta (p110 beta) (P27986 whole entry partner, canonical isoform): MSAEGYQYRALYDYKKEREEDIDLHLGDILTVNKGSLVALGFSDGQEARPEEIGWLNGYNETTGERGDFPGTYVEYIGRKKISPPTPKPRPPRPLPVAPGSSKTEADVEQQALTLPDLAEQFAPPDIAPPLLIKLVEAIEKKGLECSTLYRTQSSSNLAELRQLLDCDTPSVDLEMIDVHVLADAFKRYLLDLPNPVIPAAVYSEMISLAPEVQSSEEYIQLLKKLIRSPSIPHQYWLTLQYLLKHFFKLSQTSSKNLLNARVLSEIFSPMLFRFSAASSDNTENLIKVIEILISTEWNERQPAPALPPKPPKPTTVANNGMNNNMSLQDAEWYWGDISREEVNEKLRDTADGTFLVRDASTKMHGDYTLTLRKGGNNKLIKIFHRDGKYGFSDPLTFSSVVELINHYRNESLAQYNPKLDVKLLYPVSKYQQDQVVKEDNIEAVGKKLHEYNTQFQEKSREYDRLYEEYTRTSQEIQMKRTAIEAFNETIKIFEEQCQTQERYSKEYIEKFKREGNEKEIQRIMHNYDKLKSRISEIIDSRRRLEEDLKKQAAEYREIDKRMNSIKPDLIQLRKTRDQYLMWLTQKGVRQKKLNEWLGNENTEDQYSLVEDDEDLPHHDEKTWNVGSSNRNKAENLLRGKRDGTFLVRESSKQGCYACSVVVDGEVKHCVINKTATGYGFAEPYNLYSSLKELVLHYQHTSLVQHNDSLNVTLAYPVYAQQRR
Description: as §1, §2

[3] = molecular target: human PI3K isoform delta (p110 delta) (Homo sapiens, UniProt O00329); assay: p110 isoform selectivity scintillation proximity assay (delta); format: biochemical; conditions: ratio of IC50 values, SPA, purified human PI3K isoforms
Sequence of human PI3K isoform delta (p110 delta) (O00329 whole entry, canonical isoform): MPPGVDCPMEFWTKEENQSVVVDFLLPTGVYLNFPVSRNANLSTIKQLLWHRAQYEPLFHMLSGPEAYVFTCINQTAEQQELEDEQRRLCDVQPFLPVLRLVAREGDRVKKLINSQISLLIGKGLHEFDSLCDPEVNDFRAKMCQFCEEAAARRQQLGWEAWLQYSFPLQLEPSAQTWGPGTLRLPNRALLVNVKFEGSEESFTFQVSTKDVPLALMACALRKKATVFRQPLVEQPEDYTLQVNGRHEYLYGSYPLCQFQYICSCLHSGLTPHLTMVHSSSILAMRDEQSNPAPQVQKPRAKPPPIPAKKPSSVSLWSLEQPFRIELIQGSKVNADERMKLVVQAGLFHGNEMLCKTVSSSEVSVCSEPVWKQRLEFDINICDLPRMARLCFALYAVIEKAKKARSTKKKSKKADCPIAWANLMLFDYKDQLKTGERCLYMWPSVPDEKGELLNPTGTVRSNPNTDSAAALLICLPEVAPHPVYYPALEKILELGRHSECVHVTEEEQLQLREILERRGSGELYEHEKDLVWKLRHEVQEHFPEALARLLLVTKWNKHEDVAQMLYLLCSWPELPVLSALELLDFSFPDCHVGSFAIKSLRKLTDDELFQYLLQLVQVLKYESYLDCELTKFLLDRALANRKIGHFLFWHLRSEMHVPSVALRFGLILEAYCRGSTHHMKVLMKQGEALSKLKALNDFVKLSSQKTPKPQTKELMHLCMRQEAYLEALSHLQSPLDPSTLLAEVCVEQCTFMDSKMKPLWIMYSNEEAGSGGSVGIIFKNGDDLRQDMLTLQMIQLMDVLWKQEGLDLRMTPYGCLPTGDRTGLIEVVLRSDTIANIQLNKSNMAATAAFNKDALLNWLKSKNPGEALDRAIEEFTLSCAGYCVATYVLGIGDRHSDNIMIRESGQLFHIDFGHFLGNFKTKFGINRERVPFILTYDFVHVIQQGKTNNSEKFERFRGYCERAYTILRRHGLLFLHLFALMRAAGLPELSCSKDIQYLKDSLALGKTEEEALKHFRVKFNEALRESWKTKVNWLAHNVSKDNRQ
Sequence of human PI3K isoform delta (p110 delta) (P27986 whole entry partner, canonical isoform): as the sequence (P27986 whole entry partner, canonical isoform) above
Description: as §1, §2

Caco-2 cells = assay: Caco-2 permeability; format: in vitro ADME; conditions: bidirectional Caco-2 assay
Description: Caco-2 cells were seeded onto Millipore Multiscreen plates at 1×10^5 cells/cm^2, and were cultured for 20 days. Assessment of compound permeability was subsequently conducted. The compounds were applied to the apical surface (A) of cell monolayers and compound permeation into the basolateral (B) compartment was measured. This was performed in the reverse direction (B−A) to investigate active transport. A permeability coefficient value, Papp, for each compound, a measure of the rate of permeation of the compound across the membrane, was calculated. Compounds were grouped into low (Papp</=[…]) or high (Papp>/=[…]) absorption potential based on comparison with control compounds with established human absorption.
For assessment of a compound's ability to undergo active efflux, the ratio of basolateral (B) to apical (A) transport compared with A to B was determined. Values of B−A/A−B>/=1.0 indicated the occurrence of active cellular efflux. All of the compounds tested through the Caco-2 permeability screen had Papp values >/=[…].

Sequence of human PI3K isoform gamma (p110 gamma) (P48736 whole entry, canonical isoform): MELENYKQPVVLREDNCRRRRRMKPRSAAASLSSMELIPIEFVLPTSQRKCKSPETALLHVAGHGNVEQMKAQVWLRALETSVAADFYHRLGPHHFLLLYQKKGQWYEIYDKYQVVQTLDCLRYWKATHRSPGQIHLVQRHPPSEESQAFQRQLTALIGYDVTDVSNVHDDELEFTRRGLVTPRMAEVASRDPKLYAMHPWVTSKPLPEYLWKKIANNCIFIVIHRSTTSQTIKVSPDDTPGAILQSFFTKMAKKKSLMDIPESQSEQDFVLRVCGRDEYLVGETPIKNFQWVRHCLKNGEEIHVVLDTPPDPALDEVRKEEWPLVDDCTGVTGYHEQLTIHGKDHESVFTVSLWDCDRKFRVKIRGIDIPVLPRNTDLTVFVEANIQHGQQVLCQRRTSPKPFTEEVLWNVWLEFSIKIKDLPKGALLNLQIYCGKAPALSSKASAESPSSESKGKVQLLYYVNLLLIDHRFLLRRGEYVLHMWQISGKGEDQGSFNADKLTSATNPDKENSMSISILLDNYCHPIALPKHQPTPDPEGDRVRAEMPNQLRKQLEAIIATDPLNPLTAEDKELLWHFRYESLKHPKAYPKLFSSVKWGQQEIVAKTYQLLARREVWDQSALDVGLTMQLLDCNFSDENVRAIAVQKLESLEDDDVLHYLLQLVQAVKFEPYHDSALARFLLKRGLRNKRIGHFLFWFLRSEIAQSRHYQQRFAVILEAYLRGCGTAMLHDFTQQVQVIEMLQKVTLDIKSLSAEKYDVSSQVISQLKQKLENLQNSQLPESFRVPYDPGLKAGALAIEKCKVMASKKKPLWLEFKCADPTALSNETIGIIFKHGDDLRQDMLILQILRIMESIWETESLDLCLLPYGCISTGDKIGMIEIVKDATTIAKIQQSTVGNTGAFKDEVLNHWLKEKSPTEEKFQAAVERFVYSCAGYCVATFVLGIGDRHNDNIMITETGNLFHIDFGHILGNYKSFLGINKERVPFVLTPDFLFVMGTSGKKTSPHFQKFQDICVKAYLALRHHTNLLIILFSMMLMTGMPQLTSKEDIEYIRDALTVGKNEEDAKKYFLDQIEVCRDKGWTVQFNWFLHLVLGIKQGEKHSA

alpha/gamma (fold potency over gamma relative to alpha) [1] [fold] | alpha/beta (fold potency over beta relative to alpha) [2] [fold] | alpha/delta (fold potency over delta relative to alpha) [3] [fold] | B−A/A−B asymmetry index (Caco-2 cells) | SMILES
>10 | >10 | >10 |  | CS(=O)(=O)N1CCN(Cc2cc3c(N4CCOCC4)nc(-c4cnc5ccccc5c4)nc3s2)CC1 [Compound 95, 3-[6-(4-Methanesulfonyl-piperazin-1-ylmethyl)-4-morpholin-4-yl-thieno[2,3-d]pyrimidin-2-yl]-quinoline]
>10 | >10 | <10 |  | CS(=O)(=O)N1CCN(Cc2cc3nc(-c4cnc5[nH]ccc5c4)nc(N4CCOCC4)c3s2)CC1 [Compound 133, 6-((4-methylsulfonylpiperazin-1-yl)methyl)-4-morpholino-2-(1H-pyrrolo[2,3-b]pyridin-5-yl)thieno[3,2-d]pyrimidine]
<10 | <10 | <10 |  | CS(=O)(=O)N1CCN(Cc2cc3nc(-c4cccc5[nH]cnc45)nc(N4CCOCC4)c3s2)CC1 [Compound 139]
>10 | >10 | >10 |  | CS(=O)(=O)N1CCN(Cc2cc3c(N4CCOCC4)nc(-c4cnc5[nH]ccc5c4)nc3s2)CC1 [Compound 140]
>10 | <10 | <10 |  | CS(=O)(=O)N1CCN(Cc2cc3c(N4CCOCC4)nc(-c4cccc5[nH]ncc45)nc3o2)CC1 [Compound 141, 2-(1H-indazol-4-yl)-6-((4-methylsulfonylpiperazin-1-yl)methyl)-4-morpholinofuro[2,3-d]pyrimidine]
>10 | >10 | <10 |  | CS(=O)(=O)N1CCN(Cc2cc3nc(-c4cnc5[nH]ccc5c4)nc(N4CCOCC4)c3o2)CC1 [Compound 142]
>10 | >10 | >10 |  | CS(=O)(=O)N1CCN(Cc2cc3c(N4CCOCC4)nc(-c4cnc5[nH]cnc5c4)nc3s2)CC1 [Compound 147]
>10 | >10 | <10 |  | Cc1nc2cc(-c3nc(N4CCOCC4)c4sc(CN5CCN(S(C)(=O)=O)CC5)cc4n3)ccc2[nH]1 [Compound 157, 6-(4-Methanesulfonyl-piperazin-1-ylmethyl)-2-(2-methyl-1H-benzoimidazol-5-yl)-4-morpholin-4-yl-thieno[3,2-d]pyrimidine]
 |  |  | less than 1.0 | CN1CCN(Cc2cc3nc(-c4cccc(O)c4)nc(N4CCOCC4)c3s2)CC1 [PI540]

SMILES | alpha/gamma (fold potency over gamma relative to alpha) [1] [fold] | alpha/beta (fold potency over beta relative to alpha) [2] [fold] | alpha/delta (fold potency over delta relative to alpha) [3] [fold] | B−A/A−B asymmetry index (Caco-2 cells)
CS(=O)(=O)N1CCN(Cc2cc3nc(-c4cnc5[nH]cnc5c4)nc(N4CCOCC4)c3s2)CC1 [Compound 144] | >10 | <10 | <10 | 
